Measurements reported in patent US10285985B2, “Pharmaceutical composition for treatment or prevention of neurodegenerative diseases” (NATIONAL UNIVERSITY CORPORATION OKAYAMA UNIVERSITY, priority 2015, dated 2019).
Where “and” joins values, the source holds several entries; their conditions need not be identical. Identical values can stand only once. Like-named read-outs stand apart in the source and are kept apart here. Blank lines part the entries; values can stand above or below the compound they belong to.

Legend:
[1] = system: Parkinson's disease model rats; assay: Apomorphine-induced rotation in Parkinson's disease model rats (6-OHDA); assay type: in vivo, SD rat; conditions: individual rats, Day 12, 0.015% w/w in feed, apomorphine 1 mg/kg i.p., 3 minutes
Method: A 8-week old male SD rat under isoflurane anesthesia was skin-incised on the head and then a connective tissue was dissected and removed. Then, the tissue was fixed on a brain stereotactic fixture, bregma and lambda coordinates were measured, a microinjection cannula was inserted at four points of administration coordinates AP (+1.3, +0.4, −0.4, −1.3 mm) and DV (−5.0 mm) at the depth of 5.0 mm from the brain surface, and 2 μL of a 3.5 mg/mL solution of 6-OHDA (6-hydroxydopamine) in a saline with 0.02% ascorbic acid as a solvent was infused at a rate of 1 μL/min. Similar surgical procedure was conducted for a sham group and saline with ascorbic acid alone was infused. Five minutes after infusion, the glass pipette was kept to be inserted for diffusing the solution. […] A rat with Parkinson's disease rotates to the left after apomorphine administration. An individual which rotated seven or more times in one minute after the initiation of the rotation was used as a Parkinson's disease model.
The rats were allowed to freely access to MF feed containing a 0.015% w/w RXR partial agonist. After 6 and 12 days, to the animal was intraperitoneally administered a 1 mg/mL solution of apomorphine in saline at 1 mg/kg, and the rotatory movement number for 3 minutes immediately after the administration was recorded.

[2] = mice, oral 30 mg/kg/day for one week; cited from earlier work
[3] = Brain-migration ability: plasma and cerebral concentration by HPLC; assay type: in vivo, male ICR mice; conditions: for concentration at 1 h: mouse, one hour after 30 mg/kg single-dose administration, male ICR mice, ave ± SEM
Method: A compound was administered at a dose of 30 mg/kg mouse body weight. A compound to be administered was prepared by dissolving it in a 1% final concentration of ethanol and suspending the solution in a 0.5% carboxymethyl cellulose (CMC) solution. Animals subjected to administration were male ICR mice (6 week old), and they were fasted from 17 o'clock the day before.
The collected blood was put in a heparinized tube, mixed with inversion and then centrifuged (600 g) for 5 minutes to obtain plasma. To 100 μL of the plasma were added 100 μL of an ammonium acetate buffer solution and 1 mL of ethyl acetate, and the mixture was stirred by a vortex mixer for 30 seconds and then left at room temperature for 10 minutes. Then, the mixture was centrifuged 30 seconds and 800 μL of the supernatant was concentrated by a centrifugal evaporator. To the concentrate was added 100 μL of an HPLC eluent to prepare an HPLC sample.
Under ether anesthesia, the brain was removed from a mouse after administrating a drug, and about 100 mg of the brain was weighed into a 2 mL Eppendorf tube. After adding 1000 μL of methanol per 100 mg of the brain, the mixture was homogenized. After the homogenization, the homogenate was centrifuged at 10,000 g at 10 to 15° C. for 10 minutes. Then, in a separate 1.5 mL Eppendorf tube, 700 μL of the supernatant […] was dispensed and concentrated to dryness by a centrifugal evaporator. To the concentrate was added 70 μL of the HPLC eluent, to give a solution (10× concentrate).
A 30 μM solution of the drug in methanol was prepared and diluted with the HPLC eluent (5 mM AcONH4, pH5, MeOH) to 10, 3, 1 and 0.3 μM. Using these, a calibration curve was formed. The plasma and the […] samples were subjected to measurement and a measured value was converted to a concentration.

[4] = system: senescence-accelerated mouse (SAMP8); assay: Y-maze test in senescence-accelerated mouse (SAMP8); assay type: in vivo; conditions: SAMP8 mice, 0.015% in feed; FIG. 5A
Method: In this test, the mice used in the step-through test were used as they were.
After the step-through test, a Y-maze for a mouse (arm length: 40 cm) was used and mice were allowed to freely move for 8 minutes. In a Y-shaped system, a near-side arm, a left-back arm and a right-back arm are A, B, and C, respectively, and the number of entry into each arm was recorded (here, “entry” is defined that both hind paws of a mouse enter an arm, and entry of forepaws only is defined as “not enter”). This is called as a Y-maze.

[5] = system: senescence-accelerated mouse (SAMP8); assay: Blood data and organ weight in senescence-accelerated mouse (SAMP8) after 9 weeks of drug feed; assay type: in vivo; conditions: drug feed for 9 weeks, FIG. 7B, C
Method: After MRI imaging, the mice used in the above test were subjected to blood collection and then dissected, and blood data and the weight of each organ were recorded. Autopsy was conducted for the mice fed with MF feed containing a drug for 9 weeks. The animals were not fasted the day before the autopsy.

[6] = system: multiple sclerosis model mice (EAE mice); assay: Multiple sclerosis model mice (EAE mice), clinical score; assay type: in vivo, C57BL6/J mice; conditions: 0.015 w/w % in feed, vs vehicle group, FIG. 8

Structure (SMILES): CCN(c1ccc(OCC(C)C)c(C(C)C)c1)c1ccc(C(=O)O)cn1 [NEt-4IB]
rotatory movement number, Left ([1]; listed as NEt-41B): 53 and 18 and 6 and 0 and 32 | rotatory movement number, Right ([1]; listed as NEt-41B): 0 (4×) and 75 | liver weight vs vehicle group [2]: not a difference | tendency to weight gain (body weight change over a week) [2]: not observed | triglyceride level vs vehicle group [2]: not a difference

concentration at 1 h ([3]; brain, read-out: Brain concentration): 11.4 ± 3.7 µM | concentration at 1 h ([3]; plasma, read-out: Plasma concentration): 15.8 ± 6 µM
Structure (SMILES): Cc1cc2c(cc1-n1nnc3cc(C(=O)O)ccc31)C(C)(C)CCC2(C)C [CBt-PMN]
migration to the brain compared with bexarotene ([3]; 30 mg/kg, mice, one hour): migrates more smoothly to the brain than bexarotene

Structure (SMILES): CN1CCc2cccc3c2[C@H]1Cc1ccc(O)c(O)c1-3 [Apomorphine, apomorphine]
rotatory movement number, Left [1]: 11 and 19 and 9 and 4 and 16 | rotatory movement number, Right [1]: 0

blood triglyceride ([5]; SAMP8 mice): increase | enlargement of the liver ([5]; SAMP8 mice): observed | blood triglyceride ([5]; SAMR1 mice): increase | enlargement of the liver ([5]; SAMR1 mice): observed
Structure (SMILES): C=C(c1ccc(C(=O)O)cc1)c1cc2c(cc1C)C(C)(C)CCC2(C)C [bexarotene]
effect on SAMP8 hyperactivity (number of entry in the Y-maze arm) [4]: no effects | clinical score / amelioration of pathological model [6]: did not ameliorate
